Experimental data taken from patent US8362023B2, “Pyrazolo pyrimidines” (Hoffmann-La Roche Inc., priority 2011, dated 2013).
Where a name gives a salt, the structure may show the parent alone.

Key:
Human DYRK1A = molecular target: T1, Human DYRK1A (Homo sapiens, UniProt Q13627); experiment: DYRK1A Kinase TR-FRET (IMAP-Tb) Assay; assay type: biochemical; details: TR-FRET (IMAP-Tb); ATP 70 μM; 37° C. for 60 minutes; averages of multiple runs; read-out: Enzyme IC50 (μM) DYRK1A
T1 construct: purchased Invitrogen PV3997
Outline: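 Human DYRK1A phosphorylates a fluorescent substrate peptide (1.0 μM) in HEPES pH 7.0 buffer with Mg2+, DTT and vanadate for 60 min at 37 °C. The phosphopeptide is captured by IMAP beads carrying a Tb tracer, and the TR-FRET signal is read at 340 nm excitation. IC50 reflects inhibition of substrate phosphorylation.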

Human DYRK1B = molecular target: T2, Human DYRK1B (Homo sapiens, UniProt Q9Y463); experiment: DYRK1B Kinase TR-FRET (IMAP-Tb) Assay; assay type: biochemical; details: TR-FRET (IMAP-Tb); ATP 70 μM; 37° C. for 60 minutes; averages of multiple runs; read-out: Enzyme IC50 (μM) DYRK1B
T2 construct: purchased Invitrogen PR8350B (former PV4649)

[1] = system: SW620 human colon cancer cells; experiment: SW620 Cell Viability Assay; assay type: cell-based; details: SW-620, 96 h, CellTiter-Glo Luminescent Cell Viability Assay, 4 days incubation, read-out: Cellular EC50 (μM) SW620
Description: SW620 Cell Viability Assay
1. Cell Plate Preparation: SW620 human colon cancer cells (known to express DYRK1B), obtained from ATCC, were seeded into 96-well plates at 3×10^3 cells/well in 50 μL of media. • Harvested the required number of cells (counts & viability determined by Guava Viacount). • Centrifuge cells to pellet and removed supernant. • Resuspended in growth media (50 μL/well) & pipetted thoroughly to break up clumps. • Setup for ˜100 wells/plate, therefore, VT=5 mL/plate @ […].
1A. Some cells (S—) were allowed to attach for 24 hrs, serum starved for 48 hrs, and then followed with test compound treatments.
Test compound solution were prepared in regular corresponding media supplemented with serum.
2. Test compound Preparation: Drugs were solubilized in either DMSO or media and prepared at various stock concentrations. • All compounds were incubated at 37° C. for 30 minutes and vortexed. • (5 mM stocks of test compound were prepared for non-soluble test compounds)
3. Test compound Plate Preparation: • The 10 mM test compound stock was diluted to a concentration of 100× the final Cmax concentration. • Then the test compound stock is diluted 50-fold in media and/or second test compound for a final Cmax concentration in the test compound plate. • The Cmax in the test compound plate (2% DMSO) is 2-fold higher than the final Cmax in the cell plate (60 μl, titrations were 1:3).
4. Viability Assay: This assay was performed as follows: • Transfer 50 μL of test compound solution per well from the test compound plate onto the cell plate prepared in Step #1. • Mix the plate with treated cells by pipetting up and down three times with 200 μL multi-channel pipette. • Incubate the cells in 5% CO2 incubator @ 37° C. for 4 days. • Run the CellTiter-Glo™ Luminescent Cell Viability Assay.
The results of this assay, given as EC50 values, indicate the concentration of test compound that inhibits tumor cell proliferation by 50%.

T2 sequence (Q9Y463 whole entry): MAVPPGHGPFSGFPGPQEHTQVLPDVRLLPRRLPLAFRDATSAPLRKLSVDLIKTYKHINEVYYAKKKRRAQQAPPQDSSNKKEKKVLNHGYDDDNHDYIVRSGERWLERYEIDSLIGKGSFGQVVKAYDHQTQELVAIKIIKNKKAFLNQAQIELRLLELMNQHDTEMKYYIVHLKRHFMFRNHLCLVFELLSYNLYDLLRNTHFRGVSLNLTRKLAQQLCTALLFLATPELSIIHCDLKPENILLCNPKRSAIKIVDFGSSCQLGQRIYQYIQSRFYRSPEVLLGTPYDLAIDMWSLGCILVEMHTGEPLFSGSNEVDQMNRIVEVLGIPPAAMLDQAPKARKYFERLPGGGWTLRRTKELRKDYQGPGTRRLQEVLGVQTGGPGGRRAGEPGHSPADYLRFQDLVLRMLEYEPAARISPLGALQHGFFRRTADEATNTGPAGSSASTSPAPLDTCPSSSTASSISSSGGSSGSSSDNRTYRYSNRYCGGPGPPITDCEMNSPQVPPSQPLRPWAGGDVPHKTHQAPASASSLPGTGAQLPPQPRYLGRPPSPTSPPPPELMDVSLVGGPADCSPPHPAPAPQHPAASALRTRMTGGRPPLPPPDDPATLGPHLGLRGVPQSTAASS

Structure (SMILES)	IC50 (Human DYRK1A)	IC50 (Human DYRK1B)	EC50 [1]
c1cc(-c2n[nH]c3nc(NCCN4CCOCC4)ncc23)nc(NCc2ccsc2)n1 [Example 77, (2-Morpholin-4-yl-ethyl)-(3-{2-[(thiophen-3-ylmethyl)-amino]-pyrimidin-4-yl}-1H-pyrazolo[3,4-d]pyrimidin-6-yl)-amine; hydrochloride]	0.0129 µM	0.04 µM	5.99 µM
NCC(Nc1nccc(-c2n[nH]c3nc(N[C@H]4CC[C@H](N)CC4)ncc23)n1)c1cccc(Cl)c1 (stereo partly drawn) [Example 78, N-(3-{2-[2-Amino-1-(3-chloro-phenyl)-ethylamino]-pyrimidin-4-yl}-1H-pyrazolo[3,4-d]pyrimidin-6-yl)-cyclohexane-1,4-diamine; hydrochloride]	0.0046 µM	< 0.0046 µM	0.7 µM
NCCC(Nc1cccc(-c2n[nH]c3nc(N[C@H]4CC[C@H](N)CC4)ncc23)c1)c1ccccc1 (stereo partly drawn) [Example 79, N-{3-[3-(3-Amino-1-phenyl-propylamino)-phenyl]-1H-pyrazolo[3,4-d]pyrimidin-6-yl}-cyclohexane-1,4-diamine; hydrochloride]	1.11 µM	0.601 µM	> 10 µM
NCCC(Nc1nccc(-c2n[nH]c3nc(N[C@H]4CC[C@H](N)CC4)ncc23)n1)c1cccc(Cl)c1 (stereo partly drawn) [Example 80, N-(3-{2-[3-Amino-1-(3-chloro-phenyl)-propylamino]-pyrimidin-4-yl}-1H-pyrazolo[3,4-d]pyrimidin-6-yl)-cyclohexane-1,4-diamine; hydrochloride]	0.0046 µM	< 0.0046 µM	0.89 µM
NCCC(Nc1nccc(-c2n[nH]c3nc(NCCN4CCOCC4)ncc23)n1)c1ccccc1 (stereo not drawn) [Example 81, N1-{4-[6-(2-Morpholin-4-yl-ethylamino)-1H-pyrazolo[3,4-d]pyrimidin-3-yl]-pyrimidin-2-yl}-1-phenyl-propane-1,3-diamine; hydrochloride]	0.112 µM	0.0944 µM	1.75 µM
NCC(Nc1nccc(-c2n[nH]c3nc(NCCN4CCOCC4)ncc23)n1)c1ccsc1 (stereo not drawn) [Example 82, N1-{4-[6-(2-Morpholin-4-yl-ethylamino)-1H-pyrazolo[3,4-d]pyrimidin-3-yl]-pyrimidin-2-yl}-1-thiophen-3-yl-ethane-1,2-diamine; hydrochloride]	0.005 µM	0.012 µM	0.27 µM
